Source: patent publication US10619210B2, “Predicting response to epigenetic drug therapy” (THE JOHNS HOPKINS UNIVERSITY, priority 2014, dated 2020)

Tests used:
Assay type in all cases: cell-based, human
[1] = test system: cell lines from breast, ovarian and colorectal cancers; assay: AZA-induced promoter CpG island demethylation and re-expression (Infinium 450K), all three cancer types
Excerpt: The canonical effects of AZA have traditionally been described as demethylation of promoter regions and subsequent expression of the silenced gene. Many of the pathway changes in response to AZA, such as increased expression of immune genes, may be the result of downstream events elicited by a small number of hubs related to promoter DNA demethylation and associated gene upregulation. We investigated hub networks in our current pan-cancer analyses by first searching, in a genome-wide analysis using the Infinium 450K methylation platform, for genes that have AZA-induced demethylation of cancer-specific, DNA hypermethylated, CpG islands associated with proximal promoter regions. The total number of such demethylated genes in the cell lines from breast, ovarian and colorectal cancers was 162 (FIG. 8A). […] The highest percentages of these demethylation and re-expression events were again seen in immune genes; 26%, of the 162 genes were categorized as immune related (FIG. 8B,C). Overall, immune gene demethylation and re-expression was again highest in ovarian cancer cell lines (53.8%) followed by colorectal (42.8%) and breast (30.7%) cancer cell lines (FIG. 8B). Of note, amongst these 162 genes, 8 (4.9%) were also in our AIM gene set (BNIP3, HERC5, ICAM1, IRF7, MX1, MST1R, PSMB8, TCRIG1) with IRF7, a member of the interferon regulatory factor family of transcription factors in particular being notable for being a canonical demethylated and reexpressed gene.
Cell lines were treated with 500 nM of AZA or carboplatin (Sigma; St. Louis, Mo.) for 72 hours while in log-growth phase, changing the media and drug every 24 hours for AZA treatment. To select an appropriate chemotherapy control, the carboplatin dose that had the similar growth inhibitory effect to 500 nM AZA after 10 days was selected. Cells were harvested at 1, 3, 7, 10, 14, 21, or 28 days following initial application of drug. DNA and RNA were obtained using standard protocols. RNA from 63 cell lines was sent for the Agilent 44K Expression Array and DNA from 53 cell lines was sent for the Illumina 450K Methylation Array.
All data were analyzed using R: A Language and Environment for Statistical Computing. Expression normalization of cell line data was performed using the package Limma as previously described. Data was normalized within each tumor type (breast, colorectal, and ovarian). These normalized values were then analyzed utilizing the Gene Set Enrichment Analysis by the Broad Institute and data packages (C5BP, Reactome, KEGG). […] TCGA HumanMethylation27K level 3 data was downloaded, standard deviation of Infinium β-values across all primary cancer samples were calculated, and the top one thousand most variable probes were chosen for hierarchical cluster analysis. […]

breast cancer cell lines [2] = assay: AZA-induced immune gene demethylation and re-expression, breast cancer cell lines
Excerpt: (§1) The canonical effects of AZA have traditionally been described as demethylation of promoter regions and subsequent expression of the silenced gene. Many of the pathway changes in response to AZA, such as increased expression of immune genes, may be the result of downstream events elicited by a small number of hubs related to promoter DNA demethylation and associated gene upregulation. We investigated hub networks in our current pan-cancer analyses by first searching, in a genome-wide analysis using the Infinium 450K methylation platform, for genes that have AZA-induced demethylation of cancer-specific, DNA hypermethylated, CpG islands associated with proximal promoter regions. The total number of such demethylated genes in the cell lines from breast, ovarian and colorectal cancers was 162 (FIG. 8A). […]
(§2) All data were analyzed using R: A Language and Environment for Statistical Computing. […] These normalized values were then analyzed utilizing the Gene Set Enrichment Analysis by the Broad Institute and data packages (C5BP, Reactome, KEGG). […] TCGA HumanMethylation27K level 3 data was downloaded, standard deviation of Infinium β-values across all primary cancer samples were calculated, and the top one thousand most variable probes were chosen for hierarchical cluster analysis. […]

[3] = test system: HCC1569, ZR751, COLO201, HT29, A2780 and TYKNU cells; assay: qRT-PCR validation of AIM genes in two cell lines from each cancer type; settings: two cell lines per cancer type
Procedure: After total cellular RNA was extracted using the Trizol method (Life Technologies, Carlsbad, Calif.), RNA concentration was determined using the Nanodrop machine and software (Thermo Fisher Scientific, Rockville, Md.). 1 μg total RNA was used to generate cDNA with the QuantiTect Reverse Transcription Kit (Qiagen, Venlo, Netherlands). Quantitative reverse transcription PCR (q-RT-PCR) of CD274, DDX58, HLA-C, IFI6, IFI27, IL-15, IRF7, IRF9, MAEL, and MAGEB2 mRNA was performed using TaqMan assays (Life Technologies, Carlsbad, Calif.) and the Applied Biosystems 7500 Fast real-time PCR system and software. Human β-actin mRNA was used as the endogenous control. The ΔΔCT method was used to calculate relative expression levels. All qRT-PCR assays were carried out in triplicate and then repeated with new cDNA synthesis. Minus RT controls (reverse transcriptase negative cDNA synthesis reactions) were performed for at least one sample per plate.

[4] = test system: ovarian cancer cell lines; assay: GSEA of Agilent 44K expression arrays after low-dose AZA, ovarian cancer cell lines
Procedure: (§3) In the context of the above background, we explored further our understanding of the global pathway changes after treatment with low doses of the DNMTi AZA in cell lines from multiple common human cancers. A total of 63 cancer cell lines (26 breast, 14 colorectal, and 23 ovarian) were treated with low dose, 500 nM, AZA for three days. DNA and RNA were isolated at multiple time points following initial drug application and analyzed for genome-wide changes in DNA methylation and gene expression (Agilent 44K Expression Array). […] These gene sets could be broadly divided into four categories including cell cycle control (cell cycle, mitosis, meiosis), DNA replication (DNA replication and packaging, transcription), mRNA splicing and translation, and immune response (FIG. 1C,D; Tables 2 and 3). […] See also FIG. 1A. […] See also FIG. 1B. […]
as §2

lung cancer cell lines = assay: GSEA of lung cancer cell lines treated with the same AZA dosing schedule; settings: 14 lung cancer cell lines
[5] = test system: colorectal cancer cell lines; assay: GSEA of Agilent 44K expression arrays after low-dose AZA, colorectal cancer cell lines
Procedure: as §3, §2

[6] = test system: colorectal cancer cell lines; assay: AZA-induced immune gene demethylation and re-expression, colorectal cancer cell lines
Excerpt: as §1, §2

[7] = test system: ovarian cancer cell lines; assay: AZA-induced immune gene demethylation and re-expression, ovarian cancer cell lines
Excerpt: as §1, §2

[8] = test system: A2780 ovarian cancer cells; assay: qRT-PCR of AIM genes in A2780 after AZA or carboplatin; settings: 500 nM for 72 hours, then 7 days recovery without drug
Procedure: FIG. 9A-9D. AIM genes are induced by TSA but not by chemotherapeutic agents. […] FIG. 9B: Box plots of AIM genes after TSA treatment. FIG. 9C: Box plots of AIM genes in DKO cells compared to the parent HCT116 cell line. The orange lines indicate 2 fold change. FIG. 9D: A2780 ovarian cancer cells were treated with 500 nM AZA or carboplatin for 72 hours, then allowed to recover for 7 days without drug before RNA was isolated. qRT-PCR was performed for IFI27, IL-15, IRF7, and MAGEB2 genes. Blue bars indicate Mock treatment, purple indicate AZA, and orange indicate carboplatin. Fold change is plotted on the Y axis. Each bar represents the average and standard deviation of three biological replicates. […]
After total cellular RNA was extracted using the Trizol method (Life Technologies, Carlsbad, Calif.), RNA concentration was determined using the Nanodrop machine and software (Thermo Fisher Scientific, Rockville, Md.). 1 μg total RNA was used to generate cDNA with the QuantiTect Reverse Transcription Kit (Qiagen, Venlo, Netherlands). Quantitative reverse transcription PCR (q-RT-PCR) of CD274, DDX58, HLA-C, IFI6, IFI27, IL-15, IRF7, IRF9, MAEL, and MAGEB2 mRNA was performed using TaqMan assays (Life Technologies, Carlsbad, Calif.) and the Applied Biosystems 7500 Fast real-time PCR system and software. […]

breast cancer cell lines [9] = assay: GSEA of Agilent 44K expression arrays after low-dose AZA, breast cancer cell lines
Procedure: as §3, §2

[10] = test system: 63 cancer cell lines (26 breast, 14 colorectal, and 23 ovarian); assay: GSEA gene sets common to 63 cancer cell lines (breast, colorectal, ovarian) after AZA
Procedure: In the context of the above background, we explored further our understanding of the global pathway changes after treatment with low doses of the DNMTi AZA in cell lines from multiple common human cancers. A total of 63 cancer cell lines (26 breast, 14 colorectal, and 23 ovarian) were treated with low dose, 500 nM, AZA for three days. DNA and RNA were isolated at multiple time points following initial drug application and analyzed for genome-wide changes in DNA methylation and gene expression (Agilent 44K Expression Array). […] These gene sets could be broadly divided into four categories including cell cycle control (cell cycle, mitosis, meiosis), DNA replication (DNA replication and packaging, transcription), mRNA splicing and translation, and immune response (FIG. 1C,D; Tables 2 and 3). […] See also FIG. 1A. […] See also FIG. 1B.
63 cell lines (26 breast cancer, 14 colorectal cancer, 23 ovarian cancer) were used in these experiments. Breast cell lines included BT20, BT474, CAMA1, EFM19, MDA453, MDA468, MDA361, MCF7, MDA231, T47D, HCC1500, and HCC1187 obtained from the American Type Tissue Collection; HCC1419, HCC38, EFM192A, HCC1569, HCC1937, HCC1954, MDA175, MDA415, MDA436, SUM149, SUM159, SKBR3, ZR751, and ZR7530 from Dr. Dennis Slamon. All cells were maintained under recommended conditions. Colorectal cell lines were all obtained from the American Type Tissue Collection and were maintained under recommended conditions. These included CACO-2, Colo201, Colo205, Colo320, DLD1, HCT116, HT29, Lovo, RKO, SK-CO1, SNUC-1, SW48, SW480, and SW620. Ovarian cell lines were obtained from the laboratory of Dr. Dennis Slamon and included A2780, CAOV3, DOV13, EFO27, ES2, Hey, HEYC2, Kuramochi, OAW28, OAW42, OV167, OV2008, OV90, OVCA429, OVCA432, OVMANA, OVCAR3, OVCAR5, OVKATE, PEO14, SKOV3, TOV112D, and TykNu; these were maintained under the ATCC recommended conditions.
Cell lines were treated with 500 nM of AZA or carboplatin (Sigma; St. Louis, Mo.) for 72 hours while in log-growth phase, changing the media and drug every 24 hours for AZA treatment. To select an appropriate chemotherapy control, the carboplatin dose that had the similar growth inhibitory effect to 500 nM AZA after 10 days was selected. Cells were harvested at 1, 3, 7, 10, 14, 21, or 28 days following initial application of drug. […]
as §2

colon cancer cell lines = assay: AIM gene expression in colon cancer cell lines after TSA; settings: six colon cancer cell lines, 300 nM TSA for 18 hours
Procedure: FIG. 9A-9D. AIM genes are induced by TSA but not by chemotherapeutic agents. […] FIG. 9B: Box plots of AIM genes after TSA treatment. FIG. 9C: Box plots of AIM genes in DKO cells compared to the parent HCT116 cell line. The orange lines indicate 2 fold change. FIG. 9D: A2780 ovarian cancer cells were treated with 500 nM AZA or carboplatin for 72 hours, then allowed to recover for 7 days without drug before RNA was isolated. qRT-PCR was performed for IFI27, IL-15, IRF7, and MAGEB2 genes. Blue bars indicate Mock treatment, purple indicate AZA, and orange indicate carboplatin. Fold change is plotted on the Y axis. Each bar represents the average and standard deviation of three biological replicates.
It is especially noteworthy that the DKO cell line (haplo-insufficient for DNMT1 and null for DNMT3B), which is shown as a genetic mimic of AZA treatment (FIG. 2B, FIG. 7) induces significant upregulation for most AIM genes (FIG. 9A, C). To determine whether this was specific to DNMT inhibitors, we also treated cells with an HDAC inhibitor (TSA) that has been used extensively in our laboratory. […] This activation appears to be in response to epigenetic agents and not the result of a general cell stress response that could be elicited by chemotherapeutics such as carboplatin.

[11] = 500 nM AZA for three days, NES>2.15, FDR<0.25

Nc1ncn([C@@H]2O[C@H](CO)[C@@H](O)[C@H]2O)c(=O)n1 [AZA, 5-azacitidine]
share of the 162 demethylated/re-expressed genes categorized as immune related [1]: 26%
subset of the 162 genes showing demethylation and re-expression in all three cancer types [1]: 4.9%
number of the 162 demethylated/re-expressed genes also in AIM gene set ([1]; 8 (4.9%)): 8 genes
total number of demethylated (and re-expressed) genes ([1]; basal β ≥0.5, Δβ(AZA-Mock)≤-0.25, >2-fold expression): 162 genes
immune gene demethylation and re-expression (percent of cell lines) (breast cancer cell lines [2]): 30.7%
qRT-PCR validation of AZA-induced re-expression of selected AIM (interferon response) genes [3]: Each chosen gene validated
qRT-PCR validation of upregulation of selected antigen presentation pathway genes [3]: validated
Overall immune pathway upregulation (percent of upregulated GSEA gene sets that are immune-related) ([4]; ovarian cancers, 500 nM AZA for three days, NES>2.15, FDR<0.25): 31.3%
upregulation of cancer testis antigens gene set (percent of cell lines) ([4]; ovarian, GSEA NES>2.15, FDR<0.25): 39.1%
gene sets common to breast, colon, and ovarian cell lines also upregulated in the lung cancer cell lines (76/80) (lung cancer cell lines): 95%
significantly upregulated pathways that were immune related (lung cancer cell lines): 23.3%
Overall immune pathway upregulation (percent of upregulated GSEA gene sets that are immune-related) [5, 11]: 14.4%
upregulation of cancer testis antigens gene set (percent of cell lines) ([5]; GSEA NES>2.15, FDR<0.25): 64.3%
immune gene demethylation and re-expression (percent of cell lines) [6]: 42.8%
immune gene demethylation and re-expression (percent of cell lines) [7]: 53.8%
expression of AIM genes IFI27, IRF7, IL15, MAGEB2 (qRT-PCR) [8]: increased
Overall immune pathway upregulation (percent of upregulated GSEA gene sets that are immune-related) (breast cancer cell lines [9]; [11]): 16.9%
upregulation of cancer testis antigens gene set (percent of cell lines) (breast cancer cell lines [9]; GSEA NES>2.15, FDR<0.25): 19.2%
immune gene sets showing upregulation by AZA (15/16 gene sets) ([10]; 500 nM AZA for three days): 93.7%
downregulated GSEA gene sets common between the three cancer types ([10]; 500 nM AZA for three days, NES<-2.15, FDR<0.25): 52 gene sets
upregulated GSEA gene sets common between the three cancer types [10, 11]: 80 gene sets
enrichment for immunomodulatory pathways in all three cancers ([10]; range over breast, colorectal, ovarian): 14.4-31.3%

CC(/C=C/C(=O)NO)=C\[C@@H](C)C(=O)c1ccc(N(C)C)cc1 [TSA]
regulation of AIM genes (colon cancer cell lines): regulates subsets of AIM genes but not as uniformly or robustly as DKO cells or AZA treated cells

N.N.O=C([O-])C1(C(=O)[O-])CCC1.[Pt+2] [carboplatin]
expression of AIM genes IFI27, IRF7, IL15, MAGEB2 (qRT-PCR) [8]: does not lead to overexpression
